Assay results: article PMC8921294, “Inhibition of mitochondrial LonP1 protease by allosteric blockade of ATP binding and hydrolysis via CDDO and its derivatives” (The Journal of Biological Chemistry, 2022)

Target: T1, LonP1 F547A/C576V (Homo sapiens, UniProt P36776, C576V/F547A)
T1 construct: hexa-histidine (N); made in house; host or cells: Rosetta 2 E. coli
T1 sequence (P36776 68-959 F547A/C576V): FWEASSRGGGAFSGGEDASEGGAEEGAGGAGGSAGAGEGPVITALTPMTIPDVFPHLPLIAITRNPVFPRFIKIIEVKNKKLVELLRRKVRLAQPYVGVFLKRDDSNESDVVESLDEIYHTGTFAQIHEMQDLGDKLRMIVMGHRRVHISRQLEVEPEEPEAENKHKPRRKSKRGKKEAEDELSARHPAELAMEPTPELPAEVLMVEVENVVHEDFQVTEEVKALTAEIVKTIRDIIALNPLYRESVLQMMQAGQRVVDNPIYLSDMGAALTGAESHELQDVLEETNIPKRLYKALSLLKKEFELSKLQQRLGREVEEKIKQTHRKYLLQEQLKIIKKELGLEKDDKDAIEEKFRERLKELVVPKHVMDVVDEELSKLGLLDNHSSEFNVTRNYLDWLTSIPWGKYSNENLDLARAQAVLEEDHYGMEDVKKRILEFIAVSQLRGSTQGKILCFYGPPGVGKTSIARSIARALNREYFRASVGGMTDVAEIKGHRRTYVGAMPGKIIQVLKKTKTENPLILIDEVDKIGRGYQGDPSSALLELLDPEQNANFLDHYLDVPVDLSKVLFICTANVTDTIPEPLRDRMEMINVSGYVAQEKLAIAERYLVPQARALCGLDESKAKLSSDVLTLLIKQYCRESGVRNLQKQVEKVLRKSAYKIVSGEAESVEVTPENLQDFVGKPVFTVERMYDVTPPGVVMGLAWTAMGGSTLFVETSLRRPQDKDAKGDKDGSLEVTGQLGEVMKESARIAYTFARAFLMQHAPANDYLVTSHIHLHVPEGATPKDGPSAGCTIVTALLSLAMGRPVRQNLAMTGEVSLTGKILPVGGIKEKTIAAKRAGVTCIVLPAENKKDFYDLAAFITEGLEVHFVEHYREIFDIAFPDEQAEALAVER
Experiment: Endpoint ATPase assay, LonP1 F547A/C576V
Assay type: biochemical
Protocol: Human mitochondrial LonP1 and mutants lacking the predicted mitochondrial targeting sequence were fused to an N-terminal hexa-histidine affinity tag, expressed in Rosetta 2 E. Coli, and purified using a nickel agarose column as previously described ([72]) and protein concentration and buffer exchange carried out using Amicon Ultra centrifugal filtration. LonP1 mutant constructs were obtained from the PCR-based QuikChange Site-Directed Mutagenesis Kit.
ADP-Glo (Promega) assays were performed according to the manufacturer's protocols. Purified wild-type or mutant LonP1 (400 nM monomer), the 26S proteasome (3 nM), or no enzyme controls were preincubated in 96-well plates (60 min, 25 °C) with ten different concentrations of CDDO and its derivatives, TP-82, enoxolone (5 μM) or DMSO vehicle control in buffer (40 mM Tris-HCl (pH 7.5), 20 mM MgCl2, 0.1 mg/ml BSA and 5% DMSO). The 26S and 20S proteasome were also assayed at 0, 0.75, 1.5, 3, 6, and 12 nM in the absence of CDDO derivatives. […] Assay reagents were used to quench further ATPase activity and generate luminescence signals proportional to the concentration of ADP formed. Background (no enzyme control) luminescence values were subtracted, and resultant values were reported as a percentage of the no drug control (100%). […]

- Fold increase in inhibition compared with WT: 7.8
- IC50 (end-point ATPase assay, read-out: CDDO IC50): 1.8 ± 0.8 µM
SMILES: CC1(C)CC[C@]2(C(=O)O)CC[C@]3(C)[C@H](C(=O)C=C4[C@@]5(C)C=C(C#N)C(=O)C(C)(C)[C@@H]5CC[C@]43C)[C@@H]2C1 [CDDO, 2-cyano-3,12-dioxooleana-1,9(11)-dien-28-oic acid]
